Measured values from patent publication US6737383B1, “Herbicidal oxadiazolidines” (priority 1999, dated 2004).

Columns and labels:
duck salad = assay: Test B flood test duck salad; assay type: in vivo, Heteranthera limosa
Procedure, shortened: (§1)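 Plants were grown to the 2-leaf stage before treatment with test chemical, then held in a greenhouse for twelve to sixteen days. Injury was visually rated against untreated controls on a 0–10 scale, where 0 is no effect and 10 is complete control.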

surinam grass = assay: Test B pre/postemergence surinam grass; assay type: in vivo, Brachiaria decumbens
Procedure, shortened: (§2)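 Herbicidal effect was estimated by eye on a ten-point control scale after plants spent twelve to sixteen days in a greenhouse following soil or foliar treatment. Foliar sprays targeted plants at one to four leaves; all doses were formulated in a non-phytotoxic solvent with surfactant.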

soybean = assay: Test B pre/postemergence soybean; assay type: in vivo, Glycine max
Procedure, shortened: as §2

wild oat = assay: Test B pre/postemergence wild oat; assay type: in vivo, Avena fatua
Procedure, shortened: as §2

velvetleaf = assay: Test B pre/postemergence velvetleaf; assay type: in vivo, Abutilon theophrasti
Procedure, shortened: as §2

morningglory = assay: Test B pre/postemergence morningglory; assay type: in vivo, Ipomoea hederacea
Procedure, shortened: as §2

crabgrass = assay: Test B pre/postemergence crabgrass; assay type: in vivo, Digitaria sanguinalis
Procedure, shortened: as §2

corn = assay: Test B pre/postemergence corn; assay type: in vivo, Zea mays
Procedure, shortened: as §2

wheat = assay: Test B pre/postemergence wheat; assay type: in vivo, Triticum aestivum
Procedure, shortened: as §2

giant foxtail = assay: Test B pre/postemergence giant foxtail; assay type: in vivo, Setaria faberii
Procedure, shortened: as §2

smallflower flatsedge = assay: Test B flood test smallflower flatsedge; assay type: in vivo, Cyperus difformis
Procedure, shortened: as §1

pigweed = assay: Test B pre/postemergence pigweed; assay type: in vivo, Amaranthus retroflexus
Procedure, shortened: as §2

bedstraw = assay: Test B pre/postemergence bedstraw; assay type: in vivo, Galium aparine; conditions: Preemergence, Rate 62 g/ha; scale 0 to 10 (0 no effect, 10 complete control)
Procedure, shortened: as §2

purple nutsedge = assay: Test B pre/postemergence purple nutsedge; assay type: in vivo, Cyperus rotundus
Procedure, shortened: as §2

bamyardgrass = assay: Test B flood test barnyardgrass; assay type: in vivo, Echinochloa crus-galli
Procedure, shortened: as §1

rice = assay: Test B flood test rice; assay type: in vivo, Oryza sativa
Procedure, shortened: as §1

rape = assay: Test B pre/postemergence rape; assay type: in vivo, Brassica napus
Procedure, shortened: as §2

sugar beet = assay: Test B pre/postemergence sugar beet; assay type: in vivo, Beta vulgaris
Procedure, shortened: as §2

blackgrass = assay: Test B pre/postemergence blackgrass; assay type: in vivo, Alopecurus myosuroides
Procedure, shortened: as §2

cocklebur = assay: Test B pre/postemergence cocklebur; assay type: in vivo, Xanthium strumarium
Procedure, shortened: as §2

[1] = Postemergence block (flood test species), Rate 250 g/ha, scale 0 to 10
[2] = Postemergence section (flood test species), Rate 500 g/ha, scale of 0 to 10 where 0 is no effect and 10 is complete control
[3] = Rate 62 g/ha, Postemergence (flood test species), scale of 0 to 10 where 0 is no effect and 10 is complete control
[4] = Rate 125 g/ha, Postemergence section (flood test species), scale 0 to 10, 0 is no effect, 10 is complete control
[5] = Postemergence, Rate 500 g/ha, scale of 0 to 10 where 0 is no effect and 10 is complete control
[6] = Preemergence, Rate 62 g/ha, scale 0 to 10 (0 no effect, 10 complete control)
[7] = Preemergence, Rate 125 g/ha, scale of 0 to 10 where 0 is no effect and 10 is complete control
[8] = Preemergence, Rate 250 g/ha, scale 0 to 10, 0 is no effect, 10 is complete control
[9] = Preemergence, Rate 500 g/ha, scale 0 to 10, 0 is no effect, 10 is complete control
[10] = Rate 62 g/ha, Postemergence, scale of 0 to 10 where 0 is no effect and 10 is complete control
[11] = Rate 125 g/ha, Postemergence, scale 0 to 10, 0 is no effect, 10 is complete control
[12] = Postemergence, Rate 250 g/ha, scale 0 to 10

## CC(C)N(C(=O)n1oc(=O)n(CC#N)c1=O)c1ccc(F)cc1F [Compound 431]
Duck salad; [1]
  Ducksalad plant response rating: 0
Duck salad; [2]
  Ducksalad plant response rating: 0
Duck salad; [3]
  Ducksalad plant response rating: 0
Duck salad; [4]
  Ducksalad plant response rating: 0
Surinam grass; Postemergence, Rate 250 g/ha, scale 0 to 10, 0 no effect, 10 complete control
  B. signalgrass plant response rating: 0
Surinam grass; [5]
  B. signalgrass plant response rating: 2
Surinam grass; [6]
  Plant response rating, B. signalgrass: 0
Surinam grass; [7]
  Plant response rating, B. signalgrass: 0
Surinam grass; [8]
  B. signalgrass plant response rating: 0
Surinam grass; [9]
  B. signalgrass plant response rating: 0
Surinam grass; [10]
  B. signalgrass plant response rating: 0
Surinam grass; [11]
  B. signalgrass plant response rating: 0
soybean; [12]
  Soybean plant response rating: 1
soybean; [5]
  Soybean plant response rating: 2
soybean; [6]
  Plant response rating, Soybean: 0
soybean; [7]
  Plant response rating, Soybean: 0
soybean; [8]
  Soybean plant response rating: 0
soybean; [9]
  Soybean plant response rating: 0
soybean; [11]
  Soybean plant response rating: 1
Wild oat; [12]
  Wild oats plant response rating: 0
Wild oat; [5]
  Wild oats plant response rating: 0
Wild oat; [6]
  Plant response rating, Wild oats: 0
Wild oat; [7]
  Plant response rating, Wild oats: 0
Wild oat; [8]
  Wild oats plant response rating: 2
Wild oat; [9]
  Wild oats plant response rating: 2
Wild oat; [11]
  Wild oats plant response rating: 0
velvetleaf; [12]
  Velvetleaf plant response rating: 0
velvetleaf; [5]
  Velvetleaf plant response rating: 2
velvetleaf; [6]
  Plant response rating, Velvetleaf: 0
velvetleaf; [7]
  Plant response rating, Velvetleaf: 0
velvetleaf; [8]
  Velvetleaf plant response rating: 0
velvetleaf; [9]
  Velvetleaf plant response rating: 0
velvetleaf; [11]
  Velvetleaf plant response rating: 0
morningglory; [12]
  Morningglory plant response rating: 1
morningglory; [5]
  Morningglory plant response rating: 2
morningglory; [6]
  Plant response rating, Morningglory: 0
morningglory; [7]
  Plant response rating, Morningglory: 0
morningglory; [8]
  Morningglory plant response rating: 0
morningglory; [9]
  Morningglory plant response rating: 0
morningglory; [11]
  Morningglory plant response rating: 1
crabgrass; [12]
  Crabgrass plant response rating: 0
crabgrass; [5]
  Crabgrass plant response rating: 2
crabgrass; [6]
  Plant response rating, Crabgrass: 0
crabgrass; [9]
  Crabgrass plant response rating: 3
crabgrass; [10]
  Crabgrass plant response rating: 0
crabgrass; [11]
  Crabgrass plant response rating: 0
corn; [12]
  Corn plant response rating: 0
corn; [5]
  Corn plant response rating: 0
corn; [6]
  Plant response rating, Corn: 0
corn; [7]
  Plant response rating, Corn: 0
corn; [8]
  Corn plant response rating: 0
corn; [9]
  Corn plant response rating: 0
corn; [10]
  Corn plant response rating: 0
corn; [11]
  Corn plant response rating: 0
wheat; [12]
  Wheat plant response rating: 0
wheat; [5]
  Wheat plant response rating: 0
wheat; [6]
  Plant response rating, Wheat: 0
wheat; [7]
  Plant response rating, Wheat: 0
wheat; [8]
  Wheat plant response rating: 0
wheat; [9]
  Wheat plant response rating: 0
wheat; [11]
  Wheat plant response rating: 0
Giant foxtail; [12]
  Giant foxtail plant response rating: 0
Giant foxtail; [5]
  Giant foxtail plant response rating: 6
Giant foxtail; [6]
  Plant response rating, Giant foxtail: 0
Giant foxtail; [7]
  Plant response rating, Giant foxtail: 0
Giant foxtail; [8]
  Giant foxtail plant response rating: 2
Giant foxtail; [9]
  Giant foxtail plant response rating: 3
Giant foxtail; [10]
  Giant foxtail plant response rating: 0
Giant foxtail; [11]
  Giant foxtail plant response rating: 0
Smallflower flatsedge; [1]
  S. Flatsedge plant response rating: 0
Smallflower flatsedge; [2]
  S. Flatsedge plant response rating: 0
Smallflower flatsedge; [4]
  S. Flatsedge plant response rating: 0
pigweed; [12]
  Redroot pigweed plant response rating: 0
pigweed; [5]
  Redroot pigweed plant response rating: 0
pigweed; [6]
  Plant response rating, Redroot pigweed: 0
pigweed; [7]
  Plant response rating, Redroot pigweed: 0
pigweed; [8]
  Redroot pigweed plant response rating: 0
pigweed; [9]
  Redroot pigweed plant response rating: 0
pigweed; [11]
  Redroot pigweed plant response rating: 0
bedstraw
  Plant response rating, Bedstraw: 0
Purple nutsedge; [12]
  Nutsedge plant response rating: 0
Purple nutsedge; [5]
  Nutsedge plant response rating: 0
Purple nutsedge; [6]
  Plant response rating, Nutsedge: 0
Purple nutsedge; [7]
  Plant response rating, Nutsedge: 0
Purple nutsedge; [8]
  Nutsedge plant response rating: 0
Purple nutsedge; [9]
  Nutsedge plant response rating: 0
Purple nutsedge; [11]
  Nutsedge plant response rating: 0
bamyardgrass; [1]
  Barnyardgrass plant response rating: 0
bamyardgrass; [2]
  Barnyardgrass plant response rating: 0
bamyardgrass; [3]
  Barnyardgrass plant response rating: 0
bamyardgrass; [4]
  Barnyardgrass plant response rating: 0
rice; [1]
  Rice plant response rating: 0
rice; [2]
  Rice plant response rating: 0
rice; [4]
  Rice plant response rating: 0
rape; [12]
  Rape plant response rating: 0
rape; [5]
  Rape plant response rating: 0
rape; [6]
  Plant response rating, Rape: 0
rape; [7]
  Plant response rating, Rape: 0
rape; [8]
  Rape plant response rating: 0
rape; [9]
  Rape plant response rating: 3
rape; [11]
  Rape plant response rating: 0
Sugar beet; [12]
  Sugarbeets plant response rating: 0
Sugar beet; [5]
  Sugarbeets plant response rating: 0
Sugar beet; [6]
  Plant response rating, Sugarbeets: 0
Sugar beet; [7]
  Plant response rating, Sugarbeets: 0
Sugar beet; [8]
  Sugarbeets plant response rating: 0
Sugar beet; [9]
  Sugarbeets plant response rating: 0
Sugar beet; [11]
  Sugarbeets plant response rating: 0
blackgrass; [12]
  Blackgrass plant response rating: 2
blackgrass; [5]
  Blackgrass plant response rating: 5
blackgrass; [6]
  Plant response rating, Blackgrass: 0
blackgrass; [7]
  Plant response rating, Blackgrass: 0
blackgrass; [8]
  Blackgrass plant response rating: 0
blackgrass; [9]
  Blackgrass plant response rating: 3
blackgrass; [10]
  Blackgrass plant response rating: 0
blackgrass; [11]
  Blackgrass plant response rating: 0
cocklebur; [12]
  Cocklebur plant response rating: 0
cocklebur; [5]
  Cocklebur plant response rating: 0
cocklebur; [6]
  Plant response rating, Cocklebur: 0
cocklebur; [7]
  Plant response rating, Cocklebur: 0
cocklebur; [8]
  Cocklebur plant response rating: 0
cocklebur; [10]
  Cocklebur plant response rating: 0
cocklebur; [11]
  Cocklebur plant response rating: 0
